≈ marks a conversion by molar mass, not a printed value. One block for each compound: values may come before it.
Tests used:
Experiment in all cases: ≥ marks a high value that may be exact or a test limit, other limits are often not marked, values filed in µg/mL are converted to µM
[1] = system: Spiroplasma melliferum BC3
[2] = system: Acholeplasma laidlawii A-EF22
Spiroplasma citri R8A2 = system: Spiroplasma citri R8A2
[3] = system: Spiroplasma floricola BNR 1
[4] = system: Mycoplasma mycoides ssp. mycoides SC KH3J
[5] = system: Escherichia coli NCTC 8007
Providencia stuartii = system: Providencia stuartii
Acinetobacter sp. = system: Acinetobacter sp.
[6] = system: Staphylococcus aureus NCTC 10571
Proteus mirabilis = system: Proteus mirabilis
Klebsiella aerogenes = system: Klebsiella aerogenes
Klebsiella sp. = system: Klebsiella sp.
[7] = system: Escherichia coli NCTC 10418
Staphylococcus aureus = system: Staphylococcus aureus
Salmonella typhimurium = system: Salmonella typhimurium
Escherichia coli 55B5 = system: Escherichia coli 55B5
Pseudomonas aeruginosa = system: Pseudomonas aeruginosa
Escherichia coli UB1005 = system: Escherichia coli UB1005
Escherichia coli DC2 = system: Escherichia coli DC2
[8] = system: Staphylococcus aureus 1056
[9] = system: Enterococcus faecalis ATCC 29212
Candida albicans 105 = system: Candida albicans 105
[10] = system: Pseudomonas aeruginosa PAO1
Candida albicans 3153A = system: Candida albicans 3153A
[11] = system: Salmonella enterica subsp. enterica serovar Typhimurium ATCC 14028s
Escherichia coli O111 = system: Escherichia coli O111
[12] = system: Salmonella enterica serovar Typhimurium MS4252S
[13] = system: Staphylococcus epidermidis
[14] = system: Staphylococcus aureus NCTC 4163
Escherichia coli O157:H7 = system: Escherichia coli O157:H7
[15] = system: Pseudomonas aeruginosa Z61
[16] = system: Staphylococcus aureus R147
Escherichia coli = system: Escherichia coli
[17] = system: Shigella dysenteriae ATCC 2932
Shigella dysenteriae = system: Shigella dysenteriae
[18] = system: Escherichia coli ATCC 25629
[19] = system: Staphylococcus aureus ATCC 2576
[20] = system: Candida albicans ATCC 3007
Aspergillus flavus = system: Aspergillus flavus
[21] = system: Escherichia coli ATCC 25922
Bacillus megaterium = system: Bacillus megaterium
[22] = system: Candida albicans ATCC 90028
[23] = system: Candida parapsilosis ATCC 22019
[24] = system: Staphylococcus aureus ATCC 25923
[25] = system: Escherichia coli ATCC 35218
Saccharomyces cerevisiae = system: Saccharomyces cerevisiae
[26] = system: Pseudomonas aeruginosa ATCC 27853

SMILES: CC(C)[C@H](NC(=O)[C@H](CCCCN)NC(=O)[C@H](CCCN=C(N)N)NC(=O)[C@@H]1CCCN1C(=O)[C@H](CC(N)=O)NC(=O)[C@H](CCCN=C(N)N)NC(=O)[C@H](CCC(N)=O)NC(=O)[C@H](Cc1c[nH]c2ccccc12)NC(=O)[C@H](CCC(N)=O)NC(=O)[C@@H](N)Cc1ccccc1)C(=O)N[C@@H](CCCN=C(N)N)C(=O)O [FQWQRNPRKVR]
MIC [5]: ≥ 1000 µM
MIC (Providencia stuartii): ≥ 1000 µM
MIC (Acinetobacter sp.): 10 µM (≈ 15.1 µg/mL)
MIC [6]: ≥ 250 µM
MIC (Proteus mirabilis): ≥ 1000 µM
MIC (Klebsiella aerogenes): ≥ 1000 µM
MIC (Klebsiella sp.): ≥ 1000 µM
MIC [7]: ≥ 750 µM

SMILES: CC[C@H](C)[C@H](NC(=O)[C@H](C)N)C(=O)N[C@@H](Cc1cnc[nH]1)C(=O)N[C@@H](CCCCN)C(=O)N[C@@H](CC(C)C)C(=O)N[C@@H](C)C(=O)N[C@@H](Cc1cnc[nH]1)C(=O)N[C@@H](CCCCN)C(=O)N[C@@H](CC(C)C)C(=O)N[C@@H](CC(C)C)C(=O)N[C@@H](CCCCN)C(=O)N[C@@H](CCCCN)C(=O)N[C@H](C(=O)N[C@@H](CC(C)C)C(=O)N[C@@H](CCCN=C(N)N)C(=O)N[C@@H](C)C(=O)N[C@H](C(=O)N[C@@H](CCCCN)C(=O)N[C@@H](CCCCN)C(=O)N[C@@H](CC(C)C)C(=O)N[C@@H](C)C(=O)N[C@@H](CC(N)=O)C(=O)O)C(C)C)[C@@H](C)O [AIHKLAHKLLKKTLRAVKKLAN]
MIC (Staphylococcus aureus): 30 µM (≈ 74.9 µg/mL)
MIC (Salmonella typhimurium): 8.5 µM (≈ 21.2 µg/mL)
MIC (Escherichia coli 55B5): 5.2 µM (≈ 13 µg/mL)
MIC (Pseudomonas aeruginosa): 10.5 µM (≈ 26.2 µg/mL)
MIC (Escherichia coli UB1005): 5.5 µM (≈ 13.7 µg/mL)

SMILES: CC[C@H](C)[C@H](NC(=O)[C@@H]1CCCN1C(=O)[C@H](CC(C)C)NC(=O)[C@@H](N)Cc1ccccc1)C(=O)N[C@H](C(=O)N[C@H](C(=O)N[C@@H](CC(N)=O)C(=O)N[C@@H](CC(C)C)C(=O)N[C@@H](CC(C)C)C(=O)N[C@@H](CO)C(=O)NCC(=O)N[C@@H](CC(C)C)C(=O)N[C@@H](CC(C)C)C(=O)O)[C@@H](C)O)C(C)C [FLPIVTNLLSGLL]
MIC [9]: > 116 µM
MIC (Aspergillus flavus): ≥ 58 µM
MIC [21]: 231 µM (≈ 323 µg/mL)
MIC (Bacillus megaterium): ≥ 46 µM
MIC [22]: ≥ 116 µM
MIC [23]: ≥ 116 µM
MIC [24]: 58 µM (≈ 81.2 µg/mL)
MIC [25]: ≥ 116 µM
MIC (Saccharomyces cerevisiae): ≥ 116 µM
MIC [26]: > 231 µM

More lines, main results first:

MIC [1]: 6.25 µM (≈ 11.2 µg/mL)
MIC [2]: 1.56 µM (≈ 2.79 µg/mL)
MIC (Spiroplasma citri R8A2): 6.25 µM (≈ 11.2 µg/mL)
MIC [3]: 6.25 µM (≈ 11.2 µg/mL)
MIC [4]: 6.25 µM (≈ 11.2 µg/mL)
SMILES: CC(C)C[C@H](NC(=O)[C@H](CC(C)C)NC(=O)[C@H](CCCCN)NC(=O)[C@H](CC(C)C)NC(=O)[C@H](CC(C)C)NC(=O)[C@H](CC(C)C)NC(=O)[C@H](CCCCN)NC(=O)[C@H](CC(C)C)NC(=O)[C@H](CC(C)C)NC(=O)[C@H](CC(C)C)NC(=O)[C@H](CCCCN)NC(=O)[C@H](CC(C)C)NC(=O)[C@H](CC(C)C)NC(=O)[C@@H](N)CCCCN)C(=O)N[C@@H](CCCCN)C(=O)O [KLLKLLLKLLLKLLK]

MIC (Escherichia coli DC2): 0.555 µM (≈ 2 µg/mL)
MIC [8]: 17.8 µM (≈ 64 µg/mL)
MIC [9]: 17.8 µM (≈ 64 µg/mL)
MIC (Candida albicans 105): 17.8 µM (≈ 64 µg/mL)
MIC [10]: 4.44 µM (≈ 16 µg/mL)
MIC (Candida albicans 3153A): 17.8 µM (≈ 64 µg/mL)
MIC [11]: 8.89 µM (≈ 32 µg/mL)
MIC (Escherichia coli O111): 4.44 µM (≈ 16 µg/mL)
MIC [12]: 0.555 µM (≈ 2 µg/mL)
MIC [13]: 8.89 µM (≈ 32 µg/mL)
MIC [14]: 17.8 µM (≈ 64 µg/mL)
MIC (Escherichia coli O157:H7): 8.89 µM (≈ 32 µg/mL)
MIC [15]: 8.89 µM (≈ 32 µg/mL)
MIC (Escherichia coli UB1005): 2.22 µM (≈ 8 µg/mL)
MIC [16]: 8.89 µM (≈ 32 µg/mL)
SMILES: CC[C@H](C)[C@H](NC(=O)[C@@H]1CCCN1C(=O)[C@H](CCCN=C(N)N)NC(=O)[C@@H]1CCCN1C(=O)[C@@H](NC(=O)[C@H](CCCN=C(N)N)NC(=O)[C@@H](N)CCCN=C(N)N)[C@@H](C)CC)C(=O)N[C@@H](CC(C)C)C(=O)N[C@@H](CC(C)C)C(=O)N1CCC[C@H]1C(=O)N[C@@H](Cc1c[nH]c2ccccc12)C(=O)N[C@@H](CCCN=C(N)N)C(=O)N1CCC[C@H]1C(=O)N1CCC[C@H]1C(=O)N[C@@H](CCCN=C(N)N)C(=O)N1CCC[C@H]1C(=O)N[C@H](C(=O)N1CCC[C@H]1C(=O)N[C@@H](CCCN=C(N)N)C(=O)N1CCC[C@H]1C(=O)N[C@@H](CCC(N)=O)C(=O)N1CCC[C@H]1C(=O)N[C@@H](CCC(N)=O)C(=O)N1CCC[C@H]1C(=O)N[C@H](C(=O)N1CCC[C@H]1C(=O)N[C@@H](CCCN=C(N)N)C(=O)N[C@@H](Cc1c[nH]c2ccccc12)C(=O)N[C@@H](CC(C)C)C(N)=O)[C@@H](C)CC)[C@@H](C)CC [RRIPRPILLPWRPPRPIPRPQPQPIPRWL]

MIC (Escherichia coli): 1.66 µM (≈ 5 µg/mL)
MIC (Shigella dysenteriae): 1.66 µM (≈ 5 µg/mL)
MIC (Staphylococcus aureus): 0.332 µM (≈ 1 µg/mL)
MIC [18]: 1.66 µM (≈ 5 µg/mL)
MIC [19]: 0.166 µM (≈ 0.5 µg/mL)
MIC [20]: 2.49 µM (≈ 7.5 µg/mL)
SMILES: CC[C@H](C)[C@H](NC(=O)CN)C(=O)N[C@@H](CC(C)C)C(=O)N[C@@H](CCCCN)C(=O)N[C@@H](CCCCN)C(=O)N[C@@H](Cc1ccccc1)C(=O)N[C@@H](CCSC)C(=O)N[C@@H](CC(C)C)C(=O)N[C@@H](Cc1cnc[nH]1)C(=O)N[C@@H](CCCN=C(N)N)C(=O)NCC(=O)N[C@H](C(=O)N[C@@H](CCCCN)C(=O)N[C@H](C(=O)N[C@@H](Cc1ccc(O)cc1)C(=O)N[C@@H](CCCCN)C(=O)N[C@@H](CCSC)C(=O)N[C@@H](CCCN=C(N)N)C(=O)N[C@H](C(=O)N[C@@H](CC(C)C)C(=O)N[C@@H](CO)C(=O)N[C@@H](CCCCN)C(=O)N[C@@H](CCCN=C(N)N)C(=O)N[C@@H](CO)C(=O)N[C@@H](Cc1cnc[nH]1)C(=O)O)[C@@H](C)O)C(C)C)[C@@H](C)O [GILKKFMLHRGTKVYKMRTLSKRSH]
MIC [17]: 0.829 µM (≈ 2.5 µg/mL)
